The values below come from patent US20100075957A1, “AMINODIHYDROTHIAZINE DERIVATIVES SUBSTITUTED WITH A CYCLIC GROUP” (SHIONOGI & CO., LTD., priority 2007, published 2010).

The target of one test is T1, Recombinant human BACE-1 (Homo sapiens, UniProt P56817).
T1 construct: purchased R&D Systems
T1 sequence (P56817 46-501): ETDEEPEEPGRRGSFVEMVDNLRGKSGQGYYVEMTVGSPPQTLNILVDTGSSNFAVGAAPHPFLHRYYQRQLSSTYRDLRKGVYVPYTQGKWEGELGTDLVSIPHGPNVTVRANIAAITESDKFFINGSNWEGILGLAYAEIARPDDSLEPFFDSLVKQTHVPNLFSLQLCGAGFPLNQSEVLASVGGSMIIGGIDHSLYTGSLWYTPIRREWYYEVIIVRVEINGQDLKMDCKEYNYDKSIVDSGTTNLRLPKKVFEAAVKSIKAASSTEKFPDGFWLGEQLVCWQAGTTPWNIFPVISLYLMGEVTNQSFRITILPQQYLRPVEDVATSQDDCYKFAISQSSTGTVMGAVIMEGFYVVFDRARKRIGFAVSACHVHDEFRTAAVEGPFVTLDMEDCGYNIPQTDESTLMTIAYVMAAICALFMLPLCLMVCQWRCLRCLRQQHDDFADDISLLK
The test is described as follows: Assay of β-secretase-inhibiting activity.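 Further: substrate is a peptide carrying biotin and europium cryptate, after the enzyme reaction, Streptavidin-XL665 is added and incubated 1 h at 30 °C before fluorescence reading.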 It is filed as biochemical. The following applies: Recombinant human BACE-1 7.4 nM, substrate peptide 18 nM, pH 5.0, 30° C., 3 hours; Table 140; read-out: IC50.
For the compound `Cc1cnn(-c2cnc(C(=O)Nc3ccc(F)c([C@]4(C)CCSC(N)=N4)c3)cn2)c1` [Compound 577], the IC50 was 30 nM.
Regarding `Cc1cc(C)n(-c2cnc(C(=O)Nc3ccc(F)c([C@]4(C)CCSC(N)=N4)c3)cn2)n1` [Compound 579], the IC50 stood at 140 nM.
With `C[C@@]1(c2cc(NC(=O)c3cnc(-n4ccc(C(F)(F)F)n4)cn3)ccc2F)CCSC(N)=N1` [Compound 580], the IC50 is 130 nM.
As for `Cc1cncc(C(=O)Nc2ccc(F)c([C@]3(C)CCSC(N)=N3)c2)n1` [Compound 585], the IC50 is 60 nM.
For `COc1cnc(C(=O)Nc2cccc([C@]3(C)CCSC(N)=N3)n2)cn1` [Compound 589], the IC50 was 60 nM.
The same measure, in the same setting: to `COCCOc1cnc(C(=O)Nc2cc([C@]3(C)CCSC(N)=N3)ccn2)cn1` [Compound 591] belongs 100 nM; to `Cc1cnc(C(=O)Nc2cc([C@]3(C)CCSC(N)=N3)ccn2)cn1` [Compound 593], 280 nM.
As for `Cc1cnc(C(=O)Nc2cccc([C@]3(C)CCSC(N)=N3)n2)cn1` [Compound 594], the IC50 came to 170 nM.
As for `C[C@@]1(c2cncc(NC(=O)c3cnc(Cl)cn3)c2)CCSC(N)=N1` [Compound 597], the IC50 is 70 nM.
On to `C[C@@]1(c2ccnc(NC(=O)c3ccc(Cl)cn3)c2)CCSC(N)=N1` [Compound 598], for which the IC50 amounted to 30 nM.
Take `C[C@@]1(c2cccc(NC(=O)c3ccc(Cl)cn3)n2)CCSC(N)=N1` [Compound 599]: the IC50 turned out to be 30 nM.

Staying with this test, now noted: Recombinant human BACE-1 7.4 nM, substrate peptide 18 nM, pH 5.0, 30° C., 3 hours; time-resolved fluorescence ratio 665/620; read-out: IC50 values (50% inhibitory concentration against the enzymatic activity).
As to `C[C@@]1(c2cncc(NC(=O)c3ncc(C(F)(F)F)cc3Cl)c2)CCSC(N)=N1` [Compound 574], the IC50 is at most 1000 nM.
`CC1(C)C[C@@](C)(c2cncc(NC(=O)c3ncc(C(F)(F)F)cc3Cl)c2)N=C(N)S1` [Compound 575]: the IC50 is at most 1000 nM.
As for `Cc1cn(-c2cnc(C(=O)Nc3ccc(F)c([C@]4(C)CCSC(N)=N4)c3)cn2)cn1` [Compound 578], the IC50 is at most 1000 nM.
Regarding `C[C@@]1(c2cncc(NC(=O)c3ccc(Cl)cn3)n2)CCSC(N)=N1` [Compound 581], the IC50 was at most 1000 nM.
For the compound `COc1cnc(C(=O)Nc2cnc(Cl)c([C@]3(C)CCSC(N)=N3)c2)cn1` [Compound 582], the IC50 was at most 1000 nM.
Regarding `COCCOc1cnc(C(=O)Nc2cnc(Cl)c([C@]3(C)CCSC(N)=N3)c2)cn1` [Compound 583], the IC50 is at most 1000 nM.
In the case of `Cc1nc(C(=O)Nc2cnc(Cl)c([C@]3(C)CCSC(N)=N3)c2)co1` [Compound 584], the IC50 was at most 1000 nM.
As to `Cc1nc(C(=O)Nc2cnc(Cl)c([C@]3(C)CCSC(N)=N3)c2)c(C)o1` [Compound 586], the IC50 was at most 1000 nM.
As to `C[C@@]1(c2cc(NC(=O)c3cccc(F)n3)ccc2F)CCSC(N)=N1` [Compound 587], the IC50 was at most 1000 nM.
On the same count and under the same terms, for `COCCOc1cnc(C(=O)Nc2cncc([C@]3(C)CCSC(N)=N3)c2)cn1` [Compound 590] the value was at most 1000 nM.
Same read-out and setting: to `COCCOc1cnc(C(=O)Nc2cccc([C@]3(C)CCSC(N)=N3)n2)cn1` [Compound 592] belongs at most 1000 nM; to `CC#CCOc1cnc(C(=O)Nc2cncc([C@]3(C)CCSC(N)=N3)c2)cn1` [Compound 595], at most 1000 nM; to `CC#CCOc1cnc(C(=O)Nc2cc([C@]3(C)CCSC(N)=N3)ccn2)cn1` [Compound 596], at most 1000 nM.
Regarding `COc1cnc(C(=O)Nc2ccc(F)c([C@]3(C)CC(C)(C)SC(N)=N3)c2)cn1` [Compound 600], the IC50 is at most 1000 nM.
With `COCCOc1cnc(C(=O)Nc2ccc(F)c([C@]3(C)CC(C)(C)SC(N)=N3)c2)cn1` [Compound 601], the IC50 is at most 1000 nM.
The same measure, in the same setting: to `COc1cnc(C(=O)Nc2ccc(F)c([C@]3(C)CCSC(N)=N3)c2)c(C)c1` [Compound 602] belongs at most 1000 nM; to `COc1cnc(C(=O)Nc2ccc(F)c([C@]3(C)CCSC(N)=N3)c2)c(N)n1` [Compound 603], at most 1000 nM.
As for `CC1(C)C[C@@](C)(c2cc(NC(=O)c3cnc(OCCF)cn3)ccc2F)N=C(N)S1` [Compound 605], the IC50 is at most 1000 nM.
